# PMC4235314 (Scientific Reports, 2014)
# T1: LmrR (Lactococcus lactis, UniProt A2RI36 1-116)
# T1 sequence: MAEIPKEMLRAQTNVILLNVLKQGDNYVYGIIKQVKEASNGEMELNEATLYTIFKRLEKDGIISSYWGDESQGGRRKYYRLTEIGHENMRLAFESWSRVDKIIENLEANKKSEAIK
# B1: lmrCD oligo (33-bp promoter fragment) (dsDNA)
# DNA 1: CAATTTAATGTAAAGTAGTTTACATTATTTAAC
# DNA 2: GTTAAATAATGTAAACTACTTTACATTAAATTG
# What was measured:
# LmrR [1] = molecular target: T2, LmrR (Lactococcus cremoris, UniProt A2RI36); assay: SPR (Biacore […], LmrR on NTA chip), kinetic […] Langmuir fit; type: binding; conditions: pH 7.4, 25 C, 150 mM NaCl, 50 uM EDTA, 0.005% P-20; dimeric central pore, 1:1 stoichiometry
# T2 construct: gene llmg_0323; full-length, synthetic codon-optimised gene in pET28b (NcoI/XhoI), C-terminal His6-tag kept, E. coli BL21(DE3), homodimer
# LmrR [2] = molecular target: T2, LmrR; assay: SPR (Biacore […], LmrR on NTA chip), equilibrium one-site fit; type: binding; conditions: pH 7.4, 25 C, 150 mM NaCl, 50 uM EDTA, 0.005% P-20; dimeric central pore, 1:1 stoichiometry
# LmrR [3] = molecular target: T1, LmrR; assay: NMR; 1H-13C HMQC titration, Ile d1 CSPs; low-field shift of Ile-62 d1 13C; SPR: 10 mM HEPES pH 7.4, 150 mM NaCl, 50 uM EDTA, 0.005% surfactant P-20, 25 C (described for compounds); NMR: 10 mM NaPi pH 6.8, 100 mM NaCl, 298 K
# LmrR [4] = molecular target: T1, LmrR; assay: SPR; LmrR immobilised on NTA chip; 1:1 Langmuir global fit; text states only 'μM affinity', number in figure; SPR: 10 mM HEPES pH 7.4, 150 mM NaCl, 50 uM EDTA, 0.005% surfactant P-20, 25 C (described for compounds); NMR: 10 mM NaPi pH 6.8, 100 mM NaCl, 298 K
Molecule,KD (LmrR [2]),also measured
CCOc1ccc(-c2nc3ccc(-c4nc5ccc(N6CCN(C)CC6)cc5[nH]4)cc3[nH]2)cc1 [Hoechst 33342],,KD (LmrR [1]): SPR analyses indicated that these compounds bind to LmrR with various affinities
COc1cccc2c1C(=O)c1c(O)c3c(c(O)c1C2=O)C[C@@](O)(C(C)=O)C[C@@H]3O[C@H]1C[C@H](N)[C@H](O)[C@H](C)O1 [daunomycin],The KD values for H33342 and daunomycin were consistent with those previously reported,
CC[n+]1c(-c2ccccc2)c2cc(N)ccc2c2ccc(N)cc21 [ethidium],SPR analyses indicated that these compounds bind to LmrR with various affinities,
CCN=c1cc2oc3cc(NCC)c(C)cc3c(-c3ccccc3C(=O)OCC)c-2cc1C [rhodamine 6G],SPR analyses indicated that these compounds bind to LmrR with various affinities,
B1,,binding result (LmrR [3]): binds; binding result (LmrR [4]): binds
